In one test the target is EP4 (Homo sapiens (Human), UniProt P35408). The experiment in a line: hEP4 cAMP assay (BT549 breast cancer cells, HTRF cAMP). The settings on record: antagonistic activity, PGE2 6 nM. The class given is cell-based. From the text: (§1) Human tumor cell lines expressing endogenously either EP4 or EP2 are used and cAMP accumulation in cells upon PGE2 stimulation is monitored. SF295 glioblastoma cells express high endogenous EP2 and no EP4, whereas BT549 breast cancer cells, express high endogenous EP4 levels and very low EP2 levels.
(§2) As a detection method for cAMP the HTRF (homogeneous time resolved fluorescence) Cisbio kit (HTRF cAMP dynamic 2 kit 20'000 tests Cisbio Cat. #62AM4PEC) was used, which is based on a competitive immunoassay using a Cryptate-labeled anti-cAMP antibody and d2-labeled cAMP. Native cAMP produced by cells or unlabeled cAMP (for the standard curve) compete with exogenously added d2-labeled cAMP (acceptor) for binding to monoclonal anti-cAMP-Eu3+Cryptate (donor). A FRET signal (Fluorescence Resonance Energy Transfer) is obtained only if the labeled anti-cAMP antibody binds the d2 labelled cAMP, thus the specific signal (i.e. energy transfer) is inversely proportional to the concentration of cAMP in the standard or sample.
(§3) Cells are counted washed and resuspended in assay buffer (AB; HBSS, 20 mM HEPES, 0.2% BSA; 2 mM IBMX).
Plate is pre-incubated 45 minutes at RT. Subsequently, 2.5 microliters of PGE2 (final conc. 6 nM) are transferred into the assay plate. Plate is incubated 30 minutes at RT.

A further test deals with EP2 (Homo sapiens (Human), UniProt P43116). Description: hEP2 cAMP assay (SF295 glioblastoma cells, HTRF cAMP). It counts as cell-based. The settings on record: antagonistic activity.
Excerpt: as §1, §2, §3
Plate is pre-incubated 45 minutes at RT. […] Plate is incubated 30 minutes at RT.
On the technique in general: Cyclic AMP is a second messenger, typically raised through Gs and lowered through Gi signalling.

Another test has as its target PTGER2 (EP2) (Homo sapiens (Human), UniProt P43116). Description: hEP2 b-arrestin assay (PathHunter HEK 293 PTGER2 b-arrestin cells). The class given is cell-based. As to conditions: antagonistic activity, beta-arrestin assay; read-out: hEP2 b-arr IC50. As for the experimental part: Plate is pre-incubated 15 minutes at 37° C. Then five microliters of PGE2 (final conc. 5 μM) are transferred into the assay plate. Plate is incubated 120 minutes at 37° C.
(each concentration is measured in duplicate)

Another test has as its target PTGER4 (EP4) (Homo sapiens (Human), UniProt P35408). Description: cell-based.

The structures appear in SMILES notation.

In general, IC50 refers to the point on the concentration scale where inhibition reaches its midpoint.

PTGER4 (EP4), sequence (P35408 whole entry): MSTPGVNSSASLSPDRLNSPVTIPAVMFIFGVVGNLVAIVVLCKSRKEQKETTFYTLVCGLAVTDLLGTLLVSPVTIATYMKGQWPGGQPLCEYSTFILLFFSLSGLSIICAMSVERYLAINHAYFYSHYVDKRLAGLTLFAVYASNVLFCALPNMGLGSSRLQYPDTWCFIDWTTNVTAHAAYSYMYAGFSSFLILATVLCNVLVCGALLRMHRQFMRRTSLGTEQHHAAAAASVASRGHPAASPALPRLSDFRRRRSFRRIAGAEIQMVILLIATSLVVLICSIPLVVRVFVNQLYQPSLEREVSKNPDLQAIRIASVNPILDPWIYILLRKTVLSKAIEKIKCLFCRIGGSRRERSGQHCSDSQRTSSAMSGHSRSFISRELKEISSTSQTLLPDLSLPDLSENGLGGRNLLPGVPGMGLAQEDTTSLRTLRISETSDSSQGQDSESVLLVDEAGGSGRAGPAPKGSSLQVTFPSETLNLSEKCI
EP4, sequence (P35408 whole entry): as above
PTGER2 (EP2), sequence (P43116 whole entry): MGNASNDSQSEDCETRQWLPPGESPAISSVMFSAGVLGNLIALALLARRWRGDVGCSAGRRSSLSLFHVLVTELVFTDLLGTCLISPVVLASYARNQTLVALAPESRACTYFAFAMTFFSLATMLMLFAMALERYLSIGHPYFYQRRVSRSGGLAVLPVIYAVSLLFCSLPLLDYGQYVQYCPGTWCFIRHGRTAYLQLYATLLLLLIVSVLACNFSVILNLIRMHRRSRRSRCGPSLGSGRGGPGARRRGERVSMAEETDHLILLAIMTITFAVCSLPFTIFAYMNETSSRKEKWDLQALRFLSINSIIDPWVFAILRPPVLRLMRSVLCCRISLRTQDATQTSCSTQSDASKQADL
EP2, sequence (P43116 whole entry): as above

On to `O=C(O)c1ccc(-c2cc(NCCc3ccc4c(c3)OCCO4)ncn2)cc1OC1CCC1` [Ex 244], for which the IC50 on EP4 came to 0.356 µM; at EP2, 0.552 µM.

As for `O=C(O)c1ccc(-c2cc(NCCc3ccc4c(c3)OCCC4)ncn2)cc1OC1CCC1` [Ex 265, 4-[6-(2-Chroman-7-yl-ethylamino)-pyrimidin-4-yl]-2-cyclobutoxy-benzoic acid], the IC50 was 0.428 µM against EP4 and 11.4 µM at EP2.

As to `CCOc1cc(-c2cc(NCCc3cc4c(cc3OC)N(C)C(=O)CC4)ncn2)sc1C(=O)O` [Ex 210], the results for the IC50 against EP4 and at EP2 were 0.252 µM and 0.794 µM, respectively.

`O=C(O)c1ccc(-c2cc(NCCc3ccc4[nH]ccc4c3)ncn2)cc1OC1CCC1` [Ex 322, 2-Cyclobutoxy-4-{6-[2-(1H-indol-5-yl)-ethylamino]-pyrimidin-4-yl}-benzoic acid]: the half-inhibitory concentration (IC50) is 0.814 µM at EP4 and 0.809 µM against EP2.

With `CCOc1cc(-c2cc(NCCc3cc4c(cc3OC)OCCO4)ncn2)ccc1OC(C)(C)C(=O)O` [Ex 313], the IC50 on EP4 worked out at 0.691 µM; against EP2 it was 0.273 µM.

As for `CCOc1cc(-c2cc(NCCc3ccc4c(c3)OCCC4)ncn2)ccc1C(=O)O` [Ex 309, 4-[6-(2-Chroman-7-yl-ethylamino)-pyrimidin-4-yl]-2-ethoxy-benzoic acid], the IC50 is 0.677 µM against EP4 and greater than 27.7 µM against EP2.

As to `CCOc1cc(-c2cc(NCCc3c(F)cc4ccccc4c3F)ncn2)ccc1CC(=O)O` [Ex 107], the results for the IC50 against EP4 and against EP2 were 0.076 µM and 0.95 µM, respectively.

Turning to `Cc1c(CCNc2cc(-c3ccc(C(=O)O)c(OC4CCC4)c3)ncn2)ccc2cccnc12` [Ex 235], the IC50 on EP4 amounted to 0.325 µM; on EP2, 0.772 µM.

On to `O=C(O)c1coc2cc(-c3cc(NCCc4ccc5sccc5c4)ncn3)ccc12` [Example 467, 6-[6-(2-Benzo[b]thiophen-5-yl-ethylamino)-pyrimidin-4-yl]-benzofuran-3-carboxylic acid], for which the results for the IC50 at PTGER2 (EP2), against EP4 (BT549 cells) and against PTGER4 (EP4) were 0.417 µM, 0.155 µM and 0.187 µM, respectively.

Consider `CSc1cc(-c2cc(NCCc3cc4c(cc3OC(F)F)OCCO4)ncn2)ccc1C(=O)O` [Example 495, 4-{6-[2-(7-Difluoromethoxy-2,3-dihydro-benzo[1,4]dioxin-6-yl)-ethylamino]-pyrimidin-4-yl}-2-methylsulfanyl-benzoic acid], for which the 50% inhibitory concentration (IC50) is 0.077 µM on PTGER2 (EP2) and 0.193 µM at PTGER4 (EP4).

As for `COc1cc2c(c(C)c1CCNc1cc(-c3ccc(C(=O)O)c(SC)c3)ncn1)OCCO2` [Example 400, 4-{6-[2-(7-Methoxy-5-methyl-2,3-dihydro-benzo[1,4]dioxin-6-yl)-ethylamino]-pyrimidin-4-yl}-2-methylsulfanyl-benzoic acid], the IC50 on PTGER2 (EP2) worked out at 0.002 µM; against PTGER4 (EP4), 0.044 µM.

As to `CCCc1cc(-c2cc(NCCc3cc4c(cc3F)OCCO4)ncn2)ccc1CC(=O)O` [Example 528, (4-{6-[2-(7-Fluoro-2,3-dihydro-benzo[1,4]dioxin-6-yl)-ethylamino]-pyrimidin-4-yl}-2-propyl-phenyl)-acetic acid], the IC50 at PTGER2 (EP2) turned out to be 0.513 µM; on PTGER4 (EP4) it was 0.198 µM.

In the case of `CCOc1cc(-c2cc(NCCc3cc4c(cc3OC)OCCO4)ncn2)cc(F)c1CC(=O)O` [Example 373, (2-Ethoxy-6-fluoro-4-{6-[2-(7-methoxy-2,3-dihydro-benzo[1,4]dioxin-6-yl)-ethylamino]-pyrimidin-4-yl}-phenyl)-acetic acid], the IC50 at PTGER2 (EP2) is 0.257 µM; against PTGER4 (EP4), 0.118 µM.

`COc1cc2c(cc1CCNc1cc(-c3ccc(C(=O)O)c(OC(C)C)c3)ncn1)OCCO2` [Example 493, 2-Isopropoxy-4-{6-[2-(7-methoxy-2,3-dihydro-benzo[1,4]dioxin-6-yl)-ethylamino]-pyrimidin-4-yl}-benzoic acid]: the results for the IC50 on PTGER2 (EP2) and on PTGER4 (EP4) were 0.642 µM and 0.497 µM, respectively.

In the case of `CCOc1cc(-c2cc(NCCc3cc(F)c4sccc4c3)ncn2)ccc1C(N)=O` [Example 461, 2-Ethoxy-4-{6-[2-(7-fluoro-benzo[b]thiophen-5-yl)-ethylamino]-pyrimidin-4-yl}benzamide], the IC50 was 0.231 µM on PTGER2 (EP2) and 0.121 µM on PTGER4 (EP4).

For the compound `CC(C)Oc1cc(-c2cc(NCCc3ccc4sccc4c3F)ncn2)ccc1C(=O)O` [Example 492, 4-{6-[2-(4-Fluoro-benzo[b]thiophen-5-yl)-ethylamino]-pyrimidin-4-yl}-2-isopropoxy-benzoic acid], the values for the IC50 at PTGER2 (EP2) and against PTGER4 (EP4) were 0.204 µM and 0.142 µM, respectively.

Regarding `CCc1cc(-c2cc(NCCc3c(OC)cc4ccccc4c3C)ncn2)ccc1CC(=O)O` [Example 445, (2-Ethyl-4-{6-[2-(3-methoxy-1-methyl-naphthalen-2-yl)-ethylamino]-pyrimidin-4-yl}-phenyl)-acetic acid], the results for the IC50 at PTGER2 (EP2) and against PTGER4 (EP4) were 0.088 µM and 0.038 µM, respectively.

For the compound `CC(C)Cc1cc(-c2cc(NCCc3ccc4sccc4c3F)ncn2)ccc1CC(=O)O` [Example 409, (4-{6-[2-(4-Fluoro-benzo[b]thiophen-5-yl)-ethylamino]-pyrimidin-4-yl}-2-isobutyl-phenyl)-acetic acid], the IC50 on PTGER2 (EP2) was found to be 0.26 µM; against PTGER4 (EP4), 0.057 µM.

For `O=C(O)c1ccc(-c2cc(NCCc3cc(F)c4sccc4c3)ncn2)cc1` [Example 496, 4-{6-[2-(7-Fluoro-benzo[b]thiophen-5-yl)-ethylamino]-pyrimidin-4-yl}-benzoic acid], the results for the IC50 at PTGER2 (EP2) and on PTGER4 (EP4) were 0.588 µM and 0.908 µM, respectively.

For `CCc1cc(-c2cc(NCCc3cc(F)c4sccc4c3)ncn2)cc(C)c1CC(=O)O` [Example 542, (2-Ethyl-4-{6-[2-(7-fluoro-benzo[b]thiophen-5-yl)-ethylamino]-pyrimidin-4-yl}-6-methyl-phenyl)-acetic acid], the IC50 on PTGER2 (EP2) came out at 0.609 µM; at PTGER4 (EP4), 0.091 µM.

As for `COc1cc2c(cc1CCNc1cc(-c3ccc(C(=O)O)c(OC4CC4)c3)ncn1)OCCO2` [Example 520, 2-Cyclopropoxy-4-{6-[2-(7-methoxy-2,3-dihydro-benzo[1,4]dioxin-6-yl)-ethylamino]-pyrimidin-4-yl}-benzoic acid], the values for the IC50 at PTGER2 (EP2) and against PTGER4 (EP4) were 0.019 µM and 0.107 µM, respectively.

On to `COc1cc2sccc2cc1CCNc1cc(-c2ccc(CC(=O)O)c(OC)c2)ncn1` [Example 381, (2-Methoxy-4-{6-[2-(6-methoxy-benzo[b]thiophen-5-yl)-ethylamino]-pyrimidin-4-yl}-phenyl)-acetic acid], for which the IC50 at PTGER2 (EP2) is 0.051 µM; against PTGER4 (EP4), 0.126 µM.

`CCCc1cc(-c2cc(NCCc3cc(F)c4sccc4c3)ncn2)ccc1C(=O)O` [Example 389, 4-{6-[2-(7-Fluoro-benzo[b]thiophen-5-yl)-ethylamino]-pyrimidin-4-yl}-2-propyl-benzoic acid]: the IC50 on PTGER2 (EP2) stood at 0.051 µM; against PTGER4 (EP4), 0.025 µM.

Consider `CCCc1cc(-c2cc(NCCc3cc4ccsc4c(F)c3OC)ncn2)ccc1CC(=O)O` [Example 486, (4-{6-[2-(7-Fluoro-6-methoxy-benzo[b]thiophen-5-yl)-ethylamino]-pyrimidin-4-yl}-2-propyl-phenyl)-acetic acid], for which the IC50 at PTGER2 (EP2) was 0.095 µM; on PTGER4 (EP4) it was 0.136 µM.

For the compound `COc1cc(-c2cc(NCCc3c(OC)cc4c(c3C)OCCO4)ncn2)ccc1CC(=O)O` [Example 434, (2-Methoxy-4-{6-[2-(7-methoxy-5-methyl-2,3-dihydro-benzo[1,4]dioxin-6-yl)-ethylamino]-pyrimidin-4-yl}-phenyl)-acetic acid], the IC50 is 0.026 µM on PTGER2 (EP2) and 0.058 µM on PTGER4 (EP4).

Turning to `CCOc1cc(-c2cc(NCCc3cc(F)c4scc(Cl)c4c3)ncn2)ccc1CC(=O)O` [Example 502, (4-{6-[2-(3-Chloro-7-fluoro-benzo[b]thiophen-5-yl)-ethylamino]-pyrimidin-4-yl}-2-ethoxy-phenyl)-acetic acid], the results for the IC50 on PTGER2 (EP2) and at PTGER4 (EP4) were 0.103 µM and 0.903 µM, respectively.

With `CCc1cc(-c2cc(NCCc3c(OC)cc4c(c3C)OCCO4)ncn2)ccc1CC(=O)O` [Example 444, (2-Ethyl-4-{6-[2-(7-methoxy-5-methyl-2,3-dihydro-benzo[1,4]dioxin-6-yl)-ethylamino]-pyrimidin-4-yl}-phenyl)-acetic acid], the IC50 at PTGER2 (EP2) stood at 0.015 µM; against PTGER4 (EP4), 0.043 µM.

In the case of `CCCc1cc(-c2cc(NCCc3cc4c(cc3OC)OCCO4)ncn2)ccc1C(=O)O` [Example 379, 4-{6-[2-(7-Methoxy-2,3-dihydro-benzo[1,4]dioxin-6-yl)-ethylamino]-pyrimidin-4-yl}-2-propyl-benzoic acid], the IC50 was determined as 0.051 µM at PTGER2 (EP2) and 0.155 µM at PTGER4 (EP4).

`Cc1c(CCNc2cc(-c3ccc(C(=O)O)c(OC4CC4)c3)ncn2)ccc2ccccc12` [Example 521, 2-Cyclopropoxy-4-{6-[2-(1-methyl-naphthalen-2-yl)-ethylamino]-pyrimidin-4-yl}-benzoic acid]: the IC50 at PTGER2 (EP2) was 0.031 µM; against PTGER4 (EP4) it was 0.078 µM.

Values taken from patent publication US11839613B2, “Pyrimidine derivatives as PGE2 receptor modulators” (IDORSIA PHARMACEUTICALS LTD, priority 2017, dated 2023).
